Results reported in PubChem BioAssay (NCI).
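Cells were grown in 96-well plates and exposed to each compound for 48 hours at five concentrations; endpoints were interpolated linearly between bracketing concentrations, or set to the highest concentration if not reached. At the GI50, growth is halved. TGI denotes the concentration required for complete inhibition of growth.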

Key:
Experiment in all cases: inhibition of tumour cell growth, NCI panel, 48 h
[1] = tested on: 786-0 renal
[2] = tested on: A498 renal
[3] = tested on: A549 NSCLC
[4] = tested on: ACHN renal
[5] = tested on: BT-549 breast
[6] = tested on: CAKI-1 renal
[7] = tested on: COLO 205 colon
[8] = tested on: DU-145 prostate
[9] = tested on: EKVX NSCLC
[10] = tested on: HCC-2998 colon
[11] = tested on: HCT-116 colon
[12] = tested on: HCT-15 colon
[13] = tested on: HL-60(TB) leukemia
[14] = tested on: HOP-62 NSCLC
[15] = tested on: HOP-92 NSCLC
[16] = tested on: HS 578T breast
[17] = tested on: HT29 colon
[18] = tested on: IGROV1 ovarian
[19] = tested on: K-562 leukemia
[20] = tested on: KM12 colon
[21] = tested on: LOX IMVI melanoma
[22] = tested on: M14 melanoma
[23] = tested on: MCF7 breast
[24] = tested on: MDA-MB-231 breast
[25] = tested on: MDA-MB-435
[26] = tested on: MOLT-4 leukemia
[27] = tested on: NCI-H226 lung
[28] = tested on: NCI-H23 lung
[29] = tested on: NCI-H460 lung
[30] = tested on: NCI-H522 lung
[31] = tested on: NCI/ADR-RES ovarian
[32] = tested on: OVCAR-3 ovarian
[33] = tested on: OVCAR-4 ovarian
[34] = tested on: OVCAR-5 ovarian
[35] = tested on: OVCAR-8 ovarian
[36] = tested on: PC-3 prostate
[37] = tested on: RPMI-8226 leukemia
[38] = tested on: RXF 393 renal
[39] = tested on: SF-268 CNS
[40] = tested on: SF-295 CNS
[41] = tested on: SF-539 CNS
[42] = tested on: SK-MEL-2 melanoma
[43] = tested on: SK-MEL-28 melanoma
[44] = tested on: SK-MEL-5 melanoma
[45] = tested on: SK-OV-3 ovarian
[46] = tested on: SN12C renal
[47] = tested on: SNB-19 CNS
[48] = tested on: SNB-75 CNS
[49] = tested on: SR leukemia
[50] = tested on: SW-620 colon
[51] = tested on: T-47D breast
[52] = tested on: TK-10 renal
[53] = tested on: U251 CNS
[54] = tested on: UACC-257 melanoma
[55] = tested on: UACC-62 melanoma
[56] = tested on: UO-31 renal

SMILES: CCOC(=O)C(=Cc1ccc(-c2ccccc2)cc1)C(=O)OCC
- GI50 [1]: 2.06 µM
- TGI [1]: 4.16 µM
- GI50 [2]: 3.74 µM
- TGI [2]: 12.8 µM
- GI50 [3]: 3.61 µM
- TGI [3]: > 100 µM
- GI50 [4]: 1.83 µM
- TGI [4]: 3.42 µM
- GI50 [5]: 2.64 µM
- TGI [5]: 7.03 µM
- GI50 [6]: 3.24 µM
- TGI [6]: 10.8 µM
- GI50 [7]: 3.45 µM
- TGI [7]: 11.1 µM
- GI50 [8]: 3.12 µM
- TGI [8]: 11.1 µM
- GI50 [9]: 10.3 µM
- TGI [9]: 22.1 µM
- GI50 [10]: 1.89 µM
- TGI [10]: 3.54 µM
- GI50 [11]: 2.13 µM
- TGI [11]: 4.91 µM
- GI50 [12]: 1.93 µM
- TGI [12]: 4.84 µM
- GI50 [13]: 2.1 µM
- TGI [13]: 4.7 µM
- GI50 [14]: 3.55 µM
- TGI [14]: 11.3 µM
- GI50 [15]: 2.42 µM
- TGI [15]: 6.72 µM
- GI50 [16]: 4.36 µM
- TGI [16]: 25.7 µM
- GI50 [17]: 2.04 µM
- TGI [17]: 3.88 µM
- GI50 [18]: 2.29 µM
- TGI [18]: 5.61 µM
- GI50 [19]: 3.17 µM
- TGI [19]: > 100 µM
- GI50 [20]: 3.37 µM
- TGI [20]: 12.1 µM
- GI50 [21]: 1.72 µM
- TGI [21]: 3.21 µM
- GI50 [22]: 3.14 µM
- TGI [22]: 11.1 µM
- GI50 [23]: 2.69 µM
- TGI [23]: 13.2 µM
- GI50 [24]: 2.98 µM
- TGI [24]: 7.2 µM
- GI50 [25]: 2.55 µM
- TGI [25]: 7.57 µM
- GI50 [26]: 2.46 µM
- TGI [26]: 6.59 µM
- GI50 [27]: 2.4 µM
- TGI [27]: 5.21 µM
- GI50 [28]: 2.22 µM
- TGI [28]: 6.34 µM
- GI50 [29]: 5.04 µM
- TGI [29]: 17.2 µM
- GI50 [30]: 1.68 µM
- TGI [30]: 3.38 µM
- GI50 [31]: 3 µM
- TGI [31]: 8.77 µM
- GI50 [32]: 2.86 µM
- TGI [32]: 8.18 µM
- GI50 [33]: 6.3 µM
- TGI [33]: 19.9 µM
- GI50 [34]: 2.67 µM
- TGI [34]: 6.48 µM
- GI50 [35]: 2.85 µM
- TGI [35]: > 100 µM
- GI50 [36]: 2.51 µM
- TGI [36]: 6.09 µM
- GI50 [37]: 2.43 µM
- TGI [37]: 7.04 µM
- GI50 [38]: 1.95 µM
- TGI [38]: 3.74 µM
- GI50 [39]: 3.06 µM
- TGI [39]: 11 µM
- GI50 [40]: 5.22 µM
- TGI [40]: 18.4 µM
- GI50 [41]: 1.8 µM
- TGI [41]: 3.35 µM
- GI50 [42]: 3.81 µM
- TGI [42]: 11.4 µM
- GI50 [43]: 1.95 µM
- TGI [43]: 4.23 µM
- GI50 [44]: 2.39 µM
- TGI [44]: 5.75 µM
- GI50 [45]: 11.7 µM
- TGI [45]: 24.8 µM
- GI50 [46]: 2.02 µM
- TGI [46]: 4.23 µM
- GI50 [47]: 2.21 µM
- TGI [47]: 5.14 µM
- GI50 [48]: 3.89 µM
- TGI [48]: 16.3 µM
- GI50 [49]: 3.13 µM
- TGI [49]: 38.3 µM
- GI50 [50]: 2.07 µM
- TGI [50]: 4.28 µM
- GI50 [51]: 2.02 µM
- TGI [51]: 4.74 µM
- GI50 [52]: 3.91 µM
- TGI [52]: 13.3 µM
- GI50 [53]: 1.68 µM
- TGI [53]: 5.67 µM
- GI50 [54]: 3.53 µM
- TGI [54]: 9.29 µM
- GI50 [55]: 1.76 µM
- TGI [55]: 3.69 µM
- GI50 [56]: 1.71 µM
- TGI [56]: 3.29 µM
